Laboratory results taken from ChEMBL document CHEMBL1146939, “Design, synthesis, and biological evaluations of novel oxindoles as HIV-1 non-nucleoside reverse transcriptase inhibitors. Part 2” (Bioorg Med Chem Lett, 2006).

How the values were obtained:
[1] = tested on: Human immunodeficiency virus 1; test: Antiviral activity against HIV1 in HEK293T cells; type: functional, organism-based; conditions: Human immunodeficiency virus 1, HEK-293T
[2] = tested on: HEK293; test: Cytotoxicity against HEK293T cells; type: functional; conditions: Homo sapiens
[3] = tested on: Human immunodeficiency virus 1; test: Antiviral activity against HIV1 Y181C mutant; type: functional, organism-based
[4] = tested on: Human immunodeficiency virus 1; test: Antiviral activity against HIV1 V106A mutant; type: functional, organism-based
[5] = tested on: Human immunodeficiency virus 1; test: Antiviral activity against HIV1 F227C mutant; type: functional, organism-based
[6] = tested on: Human immunodeficiency virus 1; test: Antiviral activity against HIV1 Y188L mutant; type: functional, organism-based
[7] = tested on: Human immunodeficiency virus 1; test: Antiviral activity against HIV1 I135T mutant; type: functional, organism-based
[8] = tested on: Human immunodeficiency virus 1; test: Antiviral activity against HIV1 F227L mutant; type: functional, organism-based
[9] = tested on: Human immunodeficiency virus 1; test: Antiviral activity against HIV1 L100I mutant; type: functional, organism-based
[10] = tested on: Human immunodeficiency virus 1; test: Antiviral activity against HIV1 I135V mutant; type: functional, organism-based
[11] = tested on: Human immunodeficiency virus 1; test: Antiviral activity against HIV1 K103N mutant; type: functional, organism-based
[12] = tested on: Human immunodeficiency virus 1; test: Antiviral activity against HIV1 E138K mutant; type: functional, organism-based
[13] = tested on: Human immunodeficiency virus 1; test: Antiviral activity against HIV1 V179E mutant; type: functional, organism-based
[14] = tested on: Rattus norvegicus; test: Cmax in […] rat at 50 mg/kg, po normalized to 1 mg/kg; type: ADME, organism-based; set-up: dose 50 mg/kg, route oral; conditions: in vivo
[15] = tested on: Rattus norvegicus; test: AUC in […] rat at 50 mg/kg, po normalized to 1 mg/kg; type: ADME, organism-based, Plasma; conditions: in vivo
[16] = Oral bioavailability in […] rat at 50 mg/kg, po; type: ADME, organism-based; conditions: in vivo

In the case of `O=C1Nc2ccc(Cl)cc2[C@@]12C[C@@H]2c1ccncc1`, the EC50 [1] is reported as > 10000 nM and the CC50 [2] is reported as > 10000 nM.

For `O=C1Nc2ccc(Cl)cc2[C@@]12C[C@@H]2c1cccn1S(=O)(=O)c1ccccc1`, the EC50 [1] was 6770 nM and the CC50 [2] was > 10000 nM.

With `O=C1Nc2ccc(Cl)cc2[C@@]12C[C@@H]2c1ccccc1` the EC50 [1] was 244 nM and the CC50 [2] was > 10000 nM.

With `C=Cc1cccc([C@H]2C[C@]23C(=O)Nc2ccc(Cl)cc23)n1` the EC50 [1] was 5 nM, the EC50 [3] was 85 nM and the EC50 [4] was 149 nM. It also gave an EC50 [5] of 578 nM, an EC50 [6] of 22600 nM and an EC50 [7] of 16 nM. The EC50 [8] was 88 nM, the EC50 [9] was 178 nM and the CC50 [2] was > 10000 nM. The EC50 [10] was < 3 nM, the EC50 [11] was 11100 nM and the EC50 [12] was 20 nM. For the same compound, the EC50 [13] was 88 nM.

With `CSc1nc([C@H]2C[C@]23C(=O)Nc2ccc(Cl)cc23)ccc1C#N` the EC50 [1] was 436 nM and the CC50 [2] was > 10000 nM.

For `O=C1Nc2ccc(Cl)cc2[C@@]12C[C@@H]2c1ccc2c(O)cccc2n1`, the EC50 [1] was 587 nM and the CC50 [2] was > 10000 nM.

With `O=C1Nc2ccc(Cl)cc2[C@@]12C[C@@H]2c1ccc2ccccc2n1` the EC50 [1] was 10 nM and the CC50 [2] was > 10000 nM.

Work on `C=Cc1cccc([C@H]2C(C)(C)[C@]23C(=O)Nc2ccc(Cl)cc23)n1` yielded an EC50 [1] of 8 nM, an EC50 [3] of 120 nM and an EC50 [4] of 41 nM. For the same compound, the EC50 [5] was 87 nM, the EC50 [6] was 1070 nM and the EC50 [7] was 37 nM. For the same compound, the EC50 [8] was 14 nM, the EC50 [9] was 228 nM and the CC50 [2] was > 10000 nM. For the same compound, the EC50 [10] was 29 nM, the EC50 [11] was 696 nM and the EC50 [12] was 26 nM. The EC50 [13] was 10 nM.

For `Cn1nnc([C@H]2C[C@]23C(=O)Nc2ccc(Cl)cc23)n1`, the EC50 [1] was 55 nM and the CC50 [2] was > 10000 nM.

For `Cc1ccc([C@H]2C[C@]23C(=O)Nc2ccc(Cl)cc23)o1`, the EC50 [1] was 73 nM and the CC50 [2] was > 10000 nM.

With `O=C1Nc2ccc(Cl)cc2[C@@]12C[C@@H]2c1ccccn1` the EC50 [1] was 8 nM, the Cmax [14] was 68.4 nM and the EC50 [3] was 3230 nM. It also gave an AUC [15] of 5.43 µg·min/mL, an EC50 [4] of 259 nM and an EC50 [5] of 528 nM. For the same compound, the EC50 [6] was > 10000 nM, the bioavailability [16] was 46% and the EC50 [7] was 127 nM. The EC50 [8] was 13 nM, the EC50 [9] was 174 nM and the CC50 [2] was > 10000 nM. For the same compound, the EC50 [10] was 26 nM, the EC50 [11] was > 10000 nM and the EC50 [12] was 45 nM. For the same compound, the EC50 [13] was 898 nM.

In the case of `O=C1Nc2ccc(Cl)cc2[C@@]12C[C@@H]2c1ccco1`, the EC50 [1] is reported as 200 nM and the CC50 [2] is reported as > 10000 nM.

`O=C1Nc2ccc(Cl)cc2[C@@]12C[C@@H]2c1ccsc1` gave an EC50 [1] of 6 nM, an EC50 [3] of 31 nM and an EC50 [4] of 513 nM. For the same compound, the EC50 [5] was 142 nM, the EC50 [6] was 1250 nM and the EC50 [7] was 48 nM. The EC50 [8] was 2 nM, the EC50 [9] was 8 nM and the CC50 [2] was 1670 nM. For the same compound, the EC50 [10] was 17 nM, the EC50 [11] was 100 nM and the EC50 [12] was 30 nM. For the same compound, the EC50 [13] was 324 nM.

With `CCc1ccc([C@H]2C[C@]23C(=O)Nc2ccc(Cl)cc23)o1` the EC50 [1] was 216 nM and the CC50 [2] was > 10000 nM.

For `O=C1Nc2ccc(Cl)cc2[C@@]12C[C@@H]2c1cccc(-c2ccccc2)n1`, the EC50 [1] was 138 nM and the CC50 [2] was > 10000 nM.

In the case of `O=C1Nc2ccc(Cl)cc2[C@@]12C[C@@H]2c1cc(Br)cs1`, the EC50 [1] is reported as 1270 nM and the CC50 [2] is reported as > 10000 nM.

Work on `O=C1Nc2ccc(Cl)cc2[C@@]12C[C@@H]2c1cccc(Br)n1` yielded an EC50 [1] of 23 nM, an EC50 [3] of 134 nM and an EC50 [4] of 166 nM. The EC50 [5] was 145 nM, the EC50 [6] was 6520 nM and the EC50 [7] was 46 nM. For the same compound, the EC50 [8] was 48 nM, the EC50 [9] was 277 nM and the CC50 [2] was > 10000 nM. For the same compound, the EC50 [10] was 14 nM, the EC50 [11] was 1930 nM and the EC50 [12] was 32 nM. The EC50 [13] was 48 nM.

In the case of `O=C1Nc2ccc(Cl)cc2[C@@]12C[C@@H]2c1cc([N+](=O)[O-])cs1`, the EC50 [1] is reported as > 10000 nM and the CC50 [2] is reported as > 10000 nM.

`CC1(C)[C@H](c2ccc3ccccc3n2)[C@@]12C(=O)Nc1ccc(Cl)cc12` showed an EC50 [1] of 10 nM, an EC50 [3] of 717 nM and an EC50 [4] of 102 nM. The EC50 [5] was 2080 nM, the EC50 [6] was > 10000 nM and the EC50 [7] was 55 nM. The EC50 [8] was 381 nM, the EC50 [9] was 58 nM and the CC50 [2] was > 10000 nM. For the same compound, the EC50 [10] was 47 nM, the EC50 [11] was 2350 nM and the EC50 [12] was 71 nM. The EC50 [13] was 483 nM.

Work on `CCOC(=O)[C@H]1C(C)(C)[C@]12C(=O)Nc1ccc(Br)cc12` yielded a Cmax [14] of 17.9 nM, an AUC [15] of 0.9 µg·min/mL and a bioavailability [16] of 27%. The CC50 [2] was > 10000 nM.

With `O=C1Nc2ccc(Cl)cc2[C@@]12C[C@@H]2c1cccc[n+]1[O-]` the EC50 [1] was > 10000 nM and the CC50 [2] was > 10000 nM.

In the case of `CC#Cc1cccc([C@H]2C[C@]23C(=O)Nc2ccc(Cl)cc23)n1`, the EC50 [1] is reported as 648 nM and the CC50 [2] is reported as > 10000 nM.

In the case of `O=C1Nc2ccc(Cl)cc2[C@@]12C[C@@H]2c1ccccc1Br`, the EC50 [1] is reported as > 10000 nM and the CC50 [2] is reported as > 10000 nM.

`O=C1Nc2ccc(Cl)cc2[C@@]12C[C@@H]2c1cccc(-c2ccco2)n1` gave an EC50 [1] of 18 nM, an EC50 [3] of 265 nM and an EC50 [4] of 2520 nM. It also gave an EC50 [5] of 658 nM, an EC50 [6] of 23100 nM and an EC50 [7] of 76 nM. It also gave an EC50 [8] of 2350 nM, an EC50 [9] of 2090 nM and a CC50 [2] of 7950 nM. The EC50 [10] was 55 nM, the EC50 [11] was 14300 nM and the EC50 [12] was 28 nM. It also gave an EC50 [13] of 101 nM.

For `O=C1Nc2ccc(Cl)cc2[C@@]12C[C@@H]2c1ccc(-c2cccc(C(F)(F)F)c2)o1`, the EC50 [1] was 5550 nM and the CC50 [2] was > 10000 nM.

With `O=C1Nc2ccc(Cl)cc2[C@@]12C[C@@H]2c1nn[nH]n1` the EC50 [1] was > 10000 nM and the CC50 [2] was 7610 nM.
